Laboratory results published in PMC3781220 (The Journal of organic chemistry, 2010).
Like-named read-outs stand apart in the source and are kept apart here.

Columns and labels:
[1] = target: T1, recombinant yeast squalene synthase (Saccharomyces cerevisiae, UniProt P29704); type: biochemical; details: for potency ratio of 2R,3S enantiomer over 2S,3R enantiomer, absence of PPi: no added PPi
T1 sequence (P29704 1-420 limits assumed): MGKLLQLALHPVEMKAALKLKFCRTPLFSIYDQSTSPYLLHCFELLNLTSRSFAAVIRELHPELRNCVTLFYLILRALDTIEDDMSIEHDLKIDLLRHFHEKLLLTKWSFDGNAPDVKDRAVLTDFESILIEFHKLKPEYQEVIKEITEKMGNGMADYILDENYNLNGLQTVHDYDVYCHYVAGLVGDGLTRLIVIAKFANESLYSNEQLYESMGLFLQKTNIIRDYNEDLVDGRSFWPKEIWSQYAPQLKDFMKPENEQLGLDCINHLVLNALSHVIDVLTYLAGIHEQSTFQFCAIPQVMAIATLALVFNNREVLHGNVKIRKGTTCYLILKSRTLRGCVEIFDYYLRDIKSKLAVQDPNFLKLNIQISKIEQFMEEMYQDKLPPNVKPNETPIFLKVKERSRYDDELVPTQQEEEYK

[2] = target: T1, recombinant yeast squalene synthase; details: cited from earlier work

In the case of `CC(C)=CCC/C(C)=C/CCCCN1[C@H](COP(=O)([O-])OP(=O)([O-])[O-])[C@@]1(C)CC/C=C(\C)CCC=C(C)C.CCCC[N+](CCCC)(CCCC)CCCC.CCCC[N+](CCCC)(CCCC)CCCC.CCCC[N+](CCCC)(CCCC)CCCC` (relative stereo) [(2R,3S)-6-OPP, (2R,3S)-trans-[2-((E)-4,8-Dimethyl-3,7-nonadienyl)-1-((E)-6, 10-dimethyl-5,9-undecadienyl)-2-methylaziridin-3-yl]methyl Diphosphate, Tris (tetrabutylammonium) Salt], the “potency ratio of 2R,3S enantiomer over 2S,3R enantiomer, presence of PPi” value ([1]; 1.5 mM PPi) is reported as 4 fold, the “synergistic effect of the PPi additive on inhibition” value ([1]; IC50 −PPi versus +PPi) is reported as “almost no change” and the “potency ratio of 2R,3S enantiomer over 2S,3R enantiomer, absence of PPi” value [1] is reported as “about 16 fold”. For the same molecule, the “potency ratio of 2R,3S enantiomer over 2S,3R enantiomer, absence of PPi” value ([1]; listed as 2R,3S enantiomer) was 16 fold and the IC50 ([1]; read-out: IC50, +PPi, 1.5 mM PPi added, pH 7.2, 100 μM [3H]FPP, ± standard error) was 1.17 ± 0.08 µM.

For `CC(C)=CCC/C(C)=C/CC/C(C)=C/C1C(COP(=O)(O)OP(=O)(O)O)C1(C)CC/C=C(\C)CCC=C(C)C` (stereo in doubt) [PSPP, presqualene diphosphate], the Ki ([2]; read-out: Ki PSPP, affinity of intermediate for the enzyme) is given as 75 ± 20 µM.

For `CC(C)=CCC/C(C)=C/CC/C(C)=C/COP(=O)(O)OP(=O)(O)O` [FPP, (E,E)-farnesyl diphosphate, reference compound], the “S0.5 FPP” value ([2]; affinity of substrate for the enzyme) is given as 19 ± 6 µM and the Km ([1]; read-out: Km for FPP, substrate constant given with the Ki experiment) is given as 20 µM.
